Key:
IL-1β = assay: Inhibition of IL-1β secretion in LPS stimulated peripheral blood mononuclear cells; type: cell-based; settings: PBMC; LPS stimulated human peripheral blood mononuclear cells, 18 hours, ELISA; read-out: The median inhibition concentration (IC50, nM) IL-1β
Procedure: (§1) To study the effect of the compound of the present invention in vitro the inhibition of the IL-1β and TNF-α secretion was measured using the following procedure:
(§2) Cytokine production was measured in the media from lipopolysaccharide (LPS) stimulated peripheral blood mononuclear cells. The mononuclear cells were isolated from human peripheral blood by Lymphoprep® (Nycomed, Norway) fractionation and suspended in RPMI 1640 (growth medium) with foetal calf serum (FCS, 2%), at a concentration of 5×10^5 cells/ml. The cells were incubated in 24-well tissue culture plates in 1 ml aliquots. Test compounds were dissolved in dimethylsulfoxide (DMSO, 10 mM) and were diluted with the medium. Compounds were added to the cells for 30 minutes, then LPS ([…] final concentration) was added. The plates were incubated for 18 hours, and the concentration of IL-1β and TNF-α in the medium was determined by enzyme-linked immunosorbent assays. The median inhibitory concentrations (IC50) of the compounds were calculated.

comedones = assay: Rhino mouse model, reduction of number of comedones; type: in vivo; settings: topical on the back daily for 21 days, 45 mM in acetone, percentage change compared to untreated control group
Procedure: The rhino mouse is an in vivo model for the study of hyperplastic and comedolytic potency of compounds used in the treatment of acne. The rhino mouse has follicles on the skin, the orifices of which are distended with horny material, and these structures resembles human comedones.
The model uses mouse of the strain RHJ/LeJ Rhino, hr^rh/hr^rh. The mice are treated topically on the back daily for 21 days with the test compound. Compounds are tested for their ability to reduce the number of comedones.
The number of comedones in the skin of the mouse is determined by histological examination. The percentage change in the number of comedones compared to an untreated control group is calculated. The compounds were applied at 45 mM dissolved in acetone.

[1] = Discolouring of compounds on filter paper before and after sun-test illumination; type: physicochemical; design: key: 0: No colour; 1: Very faint colour; 2: Light colour; 3: Medium colour; 4: Strong colour; settings: for Colour score prior to illumination: 10 mM in Ethanol:Labrasol:water 65:25:10, 10 ul spot on filter paper dried 15 minutes; for Colour score after illumination: spots illuminated in sun-test cabinet (Heraeus Suntest CPS), outdoor illumination, 5 minutes
Procedure: The discolouring of compounds of formula I was investigated in a comparison with known aminobenzophenones.
Compounds were dissolved in DMSO at 100 mM. The solutions were diluted 1:10 in the test vehicle (Ethanol:Labrasol:water 65:25:10) just prior to the experiment. 10 ul aliquots were placed in droplets on filter paper and allowed to dry for 15 minutes into spots. Then the colour of the spots was scored using the following scale:
The spots were illuminated in a sun-test cabinet (Heraeus Suntest CPS) set for outdoor illumination for 5 minutes. The scoring was repeated after illumination.

TNF-α = assay: Inhibition of TNF-α secretion in LPS stimulated peripheral blood mononuclear cells; type: cell-based; settings: PBMC; LPS stimulated human peripheral blood mononuclear cells, 18 hours, ELISA; read-out: The median inhibition concentration (IC50, nM) TNF-α
Procedure: as §1, §2

Row | Structure (SMILES) | IC50 (IL-1β) [nM] | Colour score prior to illumination [1] | Colour score after illumination [1] | IC50 (TNF-α) [nM] | Reduction in number of comedones (comedones) [%]
1 | Cc1ccccc1C(=O)c1ccc(N(C(=O)OC(C)OC(=O)C(C)(C)O)c2ccc(F)cc2C)cc1Cl (stereo not shown) [Compound 128, 2-Hydroxy-2-methyl-propionic acid 1-[[3-chloro-4-(2-methyl-benzoyl)-phenyl]-(4-fluoro-2-methyl-phenyl)-carbamoyloxy]-ethyl ester] | 10 |  |  | 7.9 | 
2 | Cc1ccccc1C(=O)c1ccc(N(C(=O)OC(C)OC(=O)c2cccnc2)c2ccc(F)cc2C)cc1Cl (stereo not shown) [Compound 147, Nicotinic acid 1-[[3-chloro-4-(2-methyl-benzoyl)-phenyl]-(4-fluoro-2-methyl-phenyl)-carbamoyloxy]-ethyl ester] |  | 0 | 0 |  | 
3 | Cc1cc(F)ccc1Nc1ccc(C(=O)c2ccccc2C)c(Cl)c1 [Reference a, 2-chloro-4-(4-fluoro-2-methyl-phenylamino)-2′-methylbenzophenone, reference compound] | 32 | 0 | 3 | 7.9 | 
4 | Cc1ccccc1C(=O)c1ccc(Nc2ccc(Br)cc2N)cc1Cl [Reference b, 4-(2-amino-4-bromo-phenylamino)-2-chloro-2′-methylbenzophenone, reference compound] |  | 1 | 3 |  | 
5 | CNc1ccccc1C(=O)c1ccc(Nc2ccccc2N)cc1Cl [Reference c, 4-(2-aminophenylamino)-2-chloro-2′-methylaminobenzophenon, reference compound] |  | 1 | 3 |  | 

Further lines, with some results ahead:

Row | IC50 (IL-1β) [nM] | Colour score prior to illumination [1] | Colour score after illumination [1] | IC50 (TNF-α) [nM] | Structure (SMILES) | Reduction in number of comedones (comedones) [%]
6 | 25 | 0 | 0 | 12 | CCCC(=O)OC(C)OC(=O)N(c1ccc(C(=O)c2ccccc2C)c(Cl)c1)c1ccc(F)cc1C (stereo not shown) [Compound 112, Butyric acid 1-[[3-chloro-4-(2-methyl-benzoyl)-phenyl]-(4-fluoro-2-methyl-phenyl)-carbamoyloxy]-ethyl ester] | −56
7 | 50 | 0 | 0 | 10 | CCCC(=O)OCOC(=O)N(c1ccc(C(=O)c2ccccc2C)c(Cl)c1)c1ccc(F)cc1C [Compound 113, Butyric acid [[3-chloro-4-(2-methyl-benzoyl)-phenyl]-(4-fluoro-2-methyl-phenyl)-carbamoyloxy]-methyl ester] | −72
8 |  | 0 | 0 |  | COCC(=O)OC(C)OC(=O)N(c1ccc(C(=O)c2ccccc2C)c(Cl)c1)c1ccc(F)cc1C (stereo not shown) [Compound 119, Methoxy-acetic acid 1-[[3-chloro-4-(2-methyl-benzoyl)-phenyl]-(4-fluoro-2-methyl-phenyl)-carbamoyloxy]-ethyl ester] | 
9 | 79 | 0 | 0 | 20 | Cc1ccccc1C(=O)c1ccc(N(C(=O)OC(C)OC(=O)CC(C)C)c2ccc(F)cc2C)cc1Cl (stereo not shown) [Compound 133, 3-Methyl-butyric acid 1-[[3-chloro-4-(2-methyl-benzoyl)-phenyl]-(4-fluoro-2-methyl-phenyl)-carbamoyloxy]-ethyl ester] | −61
10 | 7.9 |  |  | 5 | C/C=C/C(=O)OC(C)OC(=O)N(c1ccc(C(=O)c2ccccc2C)c(Cl)c1)c1ccc(F)cc1C (stereo not shown) [Compound 137, (E)-But-2-enoic acid 1-[[3-chloro-4-(2-methyl-benzoyl)-phenyl]-(4-fluoro-2-methyl-phenyl)-carbamoyloxy]-ethyl ester] | 
